Measured values from patent US12583818B2 (DAEGU-GYEONGBUK MEDICAL INNOVATION FOUNDATION, priority 2020, dated 2026).
pIC50: −log10 of the molar value. Where two headings read alike, the source gives them in different places.

How the values were obtained:
Pin1 = biological target: T1, Pin1 (Homo sapiens, UniProt Q13526); assay: Evaluation of Pin1 enzyme inhibitory activity (Sensolyte Green Pin1 assay kit); assay type: biochemical
T1 construct: purchased Anaspec
Outline: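 Compounds were tested at four working concentrations (100, 10, 1, 0.1 μM), mixed with Pin1 (50 μg/ml stock dilution), developer and substrate (1 μM as prepared). Fluorescence at 490/520 nm was recorded after 2 h in the dark at room temperature. Results were grouped into grades A–D by inhibiting concentration.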

[1] = system: A2780 cells (ovarian cancer cells); assay: Cell viability of A2780 cells (Cell-titer Glo); assay type: cell-based; settings: Homo sapiens
Procedure: (§1) In order to confirm the inhibitory effect of the compound represented by formula 1 according to the present invention on the growth of MCF7, MCF7-SP, A2780 or A2780-SP cells, the following experiment was performed, and the results are shown in Tables 4 and 5 below.
In addition, A2780 cells (ovarian cancer cells) were plated in a 96-well plate at the density of 3000 viable cells per well, and cultured in RPMI-1640 medium supplemented with 10% FBS and 1% penicillin/streptomycin.
(§2) On the next day of culture, the cells were treated with the compound of Examples 57, and 69 to 144, followed by culture for 3 days. Cell viability was evaluated by Cell-titer Glo (Promega, WC, USA), and luciferase activity was detected using a Tecan plate reader (Biocompare, USA).

[2] = system: A2780-SP cells (ovarian cancer stem cells); assay: Sphere cell viability of A2780-SP cells (Cell-titer Glo); assay type: cell-based
Procedure: as §1
On the other hand, A2780-SP cells (ovarian cancer stem cells) were plated in an Ultra-Low Attachment round bottom 96-well plate (corning) at the density of 1,500 viable cells per well, and cultured in cancer stem cell medium. The cancer stem cell medium is composed of the neurobasal medium supplemented with 20 ng/ml of bFGF, 10 ng/ml of EGF, […] of amphotericin B, HEPES, Glutamax and B27.
as §2, with “for 8” for “for 3”, “days. The medium containing the compound was added thereto once again on the 4th day. Sphere cell” for “days. Cell”

[3] = Table 2, read-out: concentration at which Pin1 inhibitory activity was exhibited
[4] = concentration at which the Pin1 enzyme activity is inhibited, 2 hours at room temperature, fluorescence 490 nm/520 nm, read-out: Pin 1 inhibition
[5] = 72 h, cell viability, culture for 3 days, read-out: A2780
[6] = 192 h, sphere cell viability, culture for 8 days, read-out: A2780-SP
[7] = Table 5, read-out: the concentration (second list of b710, cell line not named; matches A2780-SP column)
[8] = A2780, Table 5, read-out: A2780 cell concentration

T1 sequence (Q13526 whole entry): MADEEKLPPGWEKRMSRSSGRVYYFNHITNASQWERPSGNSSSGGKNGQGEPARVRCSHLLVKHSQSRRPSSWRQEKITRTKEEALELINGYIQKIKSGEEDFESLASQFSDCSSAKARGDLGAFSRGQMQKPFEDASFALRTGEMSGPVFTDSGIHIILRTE

| SMILES | pIC50 (Pin1; [3]) | pIC50 (Pin1; [4]) | pIC50 [1, 5] | pIC50 [2, 6] | pIC50 [2, 7] | pIC50 [1, 8] |
| --- | --- | --- | --- | --- | --- | --- |
| O=S(=O)(NCCCc1c[nH]c2ccc(Cl)cc12)c1ccc(OC[C@H](O)CN2CCNCC2)cc1 [Example 172, (R)—N-(3-(5-chloro-1H-indol-3-yl)propyl)-4-(2-hydroxy-3-(piperazin-1-yl)propoxy)benzenesulfonamide] | > 6.00 | > 6.00 | < 5.00 | > 6.00 | > 6.00 | – |
| CN1CCN(C[C@H](O)COc2ccc(S(=O)(=O)NCCCc3c[nH]c4ccc(Cl)cc34)cc2)CC1 [Example 173, (S)—N-(3-(5-chloro-1H-indol-3-yl)propyl)-4-(2-hydroxy-3-(4-methylpiperazin-1-yl)propoxy)benzenesulfonamide] | > 6.00 | > 6.00 | 5.00 to 6.00 | > 6.00 | > 6.00 | > 5.00 |
| O=S(=O)(NCCCc1c[nH]c2ccc(Cl)cc12)c1ccc(OC[C@@H](O)CN2CCNCC2)cc1 [Example 174, (S)—N-(3-(5-chloro-1H-indol-3-yl)propyl)-4-(2-hydroxy-3-(piperazin-1-yl)propoxy)benzenesulfonamide] | > 6.00 | > 6.00 | < 5.00 | > 6.00 | > 6.00 | – |
| Cc1ncn(CCCOc2ccc(S(=O)(=O)NCCCc3c[nH]c4ccc(Cl)cc34)cc2)c1C [Example 175, N-(3-(5-chloro-1H-indol-3-yl)propyl)-4-(3-(4,5-dimethyl-1H-imidazol-1-yl)propoxy)benzenesulfonamide] | > 6.00 | > 6.00 | 5.00 to 6.00 | > 6.00 | > 6.00 | > 5.00 |
| Cc1nc(C)n(CCCOc2ccc(S(=O)(=O)NCCCc3c[nH]c4ccc(Cl)cc34)cc2)c1C [Example 176, N-(3-(5-chloro-1H-indol-3-yl)propyl)-4-(3-(2,4,5-trimethyl-1H-imidazol-1-yl)propoxy)benzenesulfonamide] | > 6.00 | > 6.00 | 5.00 to 6.00 | > 6.00 | > 6.00 | > 5.00 |
| CN1CCN(CCCOc2ccc(S(=O)(=O)NCC3CCc4[nH]c5ccc(Cl)cc5c4C3)cc2)CC1 (centres unmarked) [Example 177, N-((6-chloro-2,3,4,9-tetrahydro-1H-carbazole-3-yl)methyl) 4-(3-(4-methylpiperazine-1-yl)propoxy)benzenesulfonamide] | > 6.00 | > 6.00 | 5.00 to 6.00 | > 6.00 | > 6.00 | > 5.00 |
| O=S(=O)(NCC1CCc2[nH]c3ccc(Cl)cc3c2C1)c1ccc(OCCCN2CCNCC2)cc1 (centres unmarked) [Example 178, N-((6-chloro-2,3,4,9-tetrahydro-1H-carbazol-3-yl)methyl)-4-(3-(piperazin-1-yl)propoxy)benzenesulfonamide] | > 6.00 | > 6.00 | 5.00 to 6.00 | > 6.00 | > 6.00 | > 5.00 |
| O=S(=O)(NCCCc1c[nH]c2cc(Cl)c(Cl)cc12)c1ccc(OCCCN2CCNCC2)cc1 [Example 183, N-(3-(5,6-dichloro-1H-indol-3-yl)propyl)-4-(3-(piperazin-1-yl)propoxy)benzenesulfonamide] | > 6.00 | > 6.00 | < 5.00 | > 6.00 | > 6.00 | – |
| CN1CCN(CCCOc2ccc(S(=O)(=O)NCCCc3c[nH]c4cc(Cl)c(Cl)cc34)cc2)CC1 [Example 184, N-(3-(5,6-dichloro-1H-indol-3-yl)propyl)-4-(3-(4-methylpiperazin-1-yl)propoxy)benzenesulfonamide] | > 6.00 | > 6.00 | < 5.00 | > 6.00 | > 6.00 | – |
| O=S(=O)(NCCCc1c[nH]c2ccc(Cl)cc12)c1ccc(CCCOc2ccncc2)cc1 [Example 185, N-(3-(5-chloro-1H-indole-3-yl)propyl)-4-(3-(pyridine-4-yloxy)propyl)benzenesulfonamide] | > 6.00 | > 6.00 | < 5.00 | < 5.00 | – | – |
| CN1CCN(CCCc2ccc(S(=O)(=O)NCCCc3c[nH]c4ccc(Cl)cc34)cc2)CC1 [Example 186, N-(3-(5-chloro-1H-indol-3-yl)propyl)-4-(3-(4-methylpiperazin-1-yl)propyl)benzenesulfonamide] | > 6.00 | > 6.00 | < 5.00 | > 6.00 | > 6.00 | – |
| CN1CCN(CCCOc2ccc(S(=O)(=O)NCC3CCc4[nH]c5ccc(F)cc5c4C3)cc2)CC1 (centres unmarked) [Example 187, N-((6-fluoro-2,3,4,9-tetrahydro-1H-carbazol-3-yl)methyl)-4-(3-(4-methylpiperazin-1-yl)propoxy)benzenesulfonamide] | > 6.00 | > 6.00 | < 5.00 | > 6.00 | > 6.00 | – |

Continued, values first:

| pIC50 (Pin1; [3]) | pIC50 (Pin1; [4]) | pIC50 [1, 5] | pIC50 [2, 6] | pIC50 [2, 7] | pIC50 [1, 8] | SMILES |
| --- | --- | --- | --- | --- | --- | --- |
| > 6.00 | > 6.00 | < 5.00 | > 6.00 | > 6.00 | – | Cc1nccn1CCCOc1ccc(S(=O)(=O)NCCCc2c[nH]c3ccc(Cl)cc23)cc1 [Example 161, N-(3-(5-chloro-1H-indol-3-yl)propyl)-4-(3-(2-methyl-1H-imidazol-1-yl)propoxy)benzenesulfonamide] |
| > 6.00 | > 6.00 | 5.00 to 6.00 | > 6.00 | > 6.00 | > 5.00 | O=S(=O)(NCCCc1c[nH]c2c(Cl)cc(Cl)cc12)c1ccc(OCCCN2CCNCC2)cc1 [Example 164, N-(3-(5,7-dichloro-1H-indol-3-yl)propyl)-4-(3-(piperazin-1-yl)propoxy)benzenesulfonamide] |
| > 6.00 | > 6.00 | 5.00 to 6.00 | > 6.00 | > 6.00 | > 5.00 | CN1CCN(CCCOc2ccc(S(=O)(=O)NCCCc3c[nH]c4c(Cl)cc(Cl)cc34)cc2)CC1 [Example 165, N-(3-(5,7-dichloro-1H-indol-3-yl)propyl)-4-(3-(4-methylpiperazin-1-yl)propoxy)benzenesulfonamide] |
| > 6.00 | > 6.00 | < 5.00 | 5.00 to 6.00 | – | – | O=S(=O)(NCCCc1c[nH]c2ccc(Cl)cc12)c1ccc(OCCCn2cnc(Cl)c2Cl)cc1 [Example 166, N-(3-(5-chloro-1H-indol-3-yl)propyl)-4-(3-(4,5-dichloro-1H-imidazol-1-yl)propoxy)benzenesulfonamide] |
| > 6.00 | > 6.00 | 5.00 to 6.00 | > 6.00 | > 6.00 | > 5.00 | CN1CCN(CCCOc2ccc(S(=O)(=O)NCCCc3n[nH]c4ccc(Cl)cc34)cc2)CC1 [Example 167, N-(3-(5-chloro-1H-indazole-3-yl)propyl)-4-(3-(4-methylpiperazine-1-yl)propoxy)benzenesulfonamide] |
| > 6.00 | > 6.00 | < 5.00 | > 6.00 | > 6.00 | – | O=S(=O)(NCCCc1n[nH]c2ccc(Cl)cc12)c1ccc(OCCCN2CCNCC2)cc1 [Example 168, N-(3-(5-chloro-1H-indazol-3-yl)propyl)-4-(3-(piperazin-1-yl)propoxy)benzenesulfonamide] |
| > 6.00 | > 6.00 | 5.00 to 6.00 | > 6.00 | > 6.00 | > 5.00 | CN1CCN(CCCOc2ccc(S(=O)(=O)NCCCc3c[nH]c4ncc(Cl)cc34)cc2)CC1 [Example 169, N-(3-(5-chloro-1H-pyrrolo[2,3-b]pyridin-3-yl)propyl)-4-(3-(4-methylpiperazin-1-yl)propoxy)benzenesulfonamide] |
| > 6.00 | > 6.00 | 5.00 to 6.00 | > 6.00 | > 6.00 | > 5.00 | O=S(=O)(NCCCc1c[nH]c2ncc(Cl)cc12)c1ccc(OCCCN2CCNCC2)cc1 [Example 170, N-(3-(5-chloro-1H-pyrrolo[2,3-b]pyridin-3-yl)propyl)-4-(3-(piperazin-1-yl)propoxy)benzenesulfonamide] |
| > 6.00 | > 6.00 | < 5.00 | > 6.00 | > 6.00 | – | CN1CCN(C[C@@H](O)COc2ccc(S(=O)(=O)NCCCc3c[nH]c4ccc(Cl)cc34)cc2)CC1 [Example 171, (R)—N-(3-(5-chloro-1H-indole-3-yl)propyl)-4-(2-hydroxy-3-(4-methylpiperazine-1-yl)propoxy)benzenesulfonamide] |
